The values that follow come from patent US10450300B2, “Wnt signaling pathway inhibitors and therapeutic applications thereof” (Suzhou Yunxuan Yiyao Keji Youxian Gongsi, priority 2015, dated 2019).

The subject of the test is Wnt pathway. The test is described as follows: Wnt pathway Super-top flash (STF) reporter gene assay (primary assay). It counts as cell-based. The following applies: HEK293 STF cells co-cultured 1:1 with L Wnt3A cells; 48 h incubation; inhibition of luminescence signaling. In a few lines: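 HEK293 cells stably carrying a Super-Top Flash TCF-luciferase reporter were co-cultured 1:1 with L Wnt3A cells for 24 h, then exposed to compound dilutions for 48 h at 37 °C. Luminescence read-out (Bright-Glo); IC50 from inhibition of luminescence.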
`Cc1cc(-c2ncc(CNc3ncnc(-c4ccc5ccccc5c4)c3F)cc2F)ccn1` [Compound A-35]: the IC50 came to 4 nM.

`Cc1cc(-c2ncc(CNc3ncnc(N4CCc5ncccc5C4)c3F)cc2C)ccn1` [Compound A-46]: the IC50 was found to be 4.9 nM.

As to `Cc1cc(-c2ncc(CNc3ncnc(N4CCc5nccnc5C4)c3F)cc2F)ccn1` [Compound A-90], the IC50 turned out to be 1.2 nM.

As for `Cc1cn(-c2ccc(CNc3nsc(-c4ccc5ncccc5c4)n3)cc2)cn1` [Compound A-187], the IC50 came to 51 nM.

Take `Cn1nccc1-c1ccc(CNc2ncnc(-c3ccc4ccccc4c3)c2F)cc1` [Compound A-39]: the IC50 was 129 nM.

On to `Cc1cc(-c2ccc(CNc3ncnc(-c4ccc5c(cnn5C)c4)c3F)cc2)ccn1` [Compound A-15], for which the IC50 was 19 nM.

Consider `N#Cc1cnc2cc(CNc3ncnc(N4CCc5ncccc5C4)c3F)ccc2c1` [Compound A-72], for which the IC50 amounted to 0.64 nM.

Consider `Cc1cc(-c2ccc(CNc3ncnc(-c4ccc5ccccc5c4)n3)cc2)ccn1` [Compound A-167], for which the IC50 worked out at 120 nM.

As for `O=S1(=O)CCN(c2ccc(CNc3nsc(-c4ccc5ncccc5c4)n3)cn2)CC1` [Compound A-188], the IC50 amounted to 4.6 nM.

For the compound `Cc1cc(-c2ncc(CNc3ncnc(N4CCn5nccc5C4)c3F)cc2C#N)ccn1` [Compound A-201], the IC50 turned out to be 0.8 nM.

Consider `Cc1cc(-c2ncc(CNc3ncnc(-c4ccc5ncsc5c4)c3F)cc2C)ccn1` [Compound A-51], for which the IC50 was 1 nM.

On to `N#Cc1ccc(NCCNc2nccc(-c3ccc4ncccc4c3)c2F)nc1` [Compound A-120], for which the IC50 was determined as 12 nM.

For the compound `Cc1cc(-c2ncc(CNc3nccc(-c4cc5cccnc5cn4)n3)cc2F)ccn1` [Compound A-184], the IC50 is 1 nM.

With `N#Cc1ccc2cc(CNc3nccc(-c4ccc5ncccc5c4)n3)cnc2c1` [Compound A-177], the IC50 was found to be 100 nM.

Regarding `COc1cc(CNc2ncnc(-c3cc4cccnc4cn3)c2F)cnc1-c1ccnc(C)c1` [Compound A-84], the IC50 is 0.26 nM.

Turning to `Cc1cc(-c2ccc(CNc3ncnc(-c4ccc5ncncc5c4)c3F)cc2)ccn1` [Compound A-9], the IC50 was found to be 2.8 nM.

With `Cc1cc(-c2ccc(CNc3ncnc(N4CCc5c(F)cccc5C4)c3F)cc2)ccn1` [Compound A-24], the IC50 was determined as 37 nM.

As to `Cc1cc(-c2ccc(CNc3ccnc(N4CCc5ncccc5C4)n3)cc2)ccn1` [Compound A-158], the IC50 came out at 3000 nM.

As for `Cc1cc(-c2ncc(CNc3ncnc(N4CCn5ncnc5C4)c3F)cc2F)ccn1` [Compound A-58], the IC50 is 34 nM.

Turning to `Cc1cc(-c2ncc(CNc3nccc(-c4cncc(Cl)c4)c3F)cc2C#N)ccn1` [Compound A-130], the IC50 was determined as 0.11 nM.

Regarding `Cc1cncc(-c2ccnc(NCc3cnc(-c4ccnc(C)c4)c(C#N)c3)c2F)c1` [Compound A-132], the IC50 was 0.25 nM.

Consider `O=S1(=O)CCN(c2ccc(CNc3nccc(-c4ccc5ncccc5c4)n3)cn2)CC1` [Compound A-180], for which the IC50 turned out to be 300 nM.

`Cc1cc(-c2ncc(CNc3nccc(-c4ccc(=O)n(C)c4)c3F)cc2F)ccn1` [Compound A-117]: the IC50 amounted to 2 nM.

For `Cc1cc(-c2ncc(CNc3nccc(-c4ccc5ncccc5c4)c3F)cc2F)ccn1` [Compound A-98], the IC50 was found to be 0.06 nM.

As for `Cc1cc(-c2ncc(CNc3nccc(-c4cc5cccnc5cn4)c3F)cc2F)ccn1` [Compound A-103], the IC50 was 0.12 nM.

On to `Cc1cc(-c2ncc(CNc3nccc(-c4ccc5ncccc5c4)n3)cc2C#N)ccn1` [Compound A-171], for which the IC50 was determined as 0.31 nM.

In the case of `N#Cc1ccc2cc(CNc3nsc(-c4ccc5ncccc5c4)n3)cnc2c1` [Compound A-199, 3-((5-(quinolin-6-yl)-1,2,4-thiadiazol-3-ylamino)methyl)quinoline-7-carbonitrile], the IC50 was 0.17 nM.

`Cc1cc(-c2ncc(CNc3nsc(-c4ccc5ncccc5c4)n3)cc2C)ccn1` [Compound A-191]: the IC50 is 0.38 nM.

Regarding `Cc1cc(-c2ncc(CNc3nccc(-c4ccc5ncccc5c4)n3)cc2F)ccn1` [Compound A-168], the IC50 was 0.85 nM.

Regarding `Fc1c(NCc2ccc3cnccc3c2)ncnc1-c1ccc2ncccc2c1` [Compound A-41], the concentration for half-maximal inhibition (IC50) came to 55 nM.

With `Cc1cc(-c2ccc(CNc3nccc(-c4ccc5ncccc5c4)n3)cn2)ccn1` [Compound A-169], the IC50 was determined as 4.9 nM.

Regarding `Cc1cc(-c2ccc(CNc3ncnc(N4CCc5ccccc5C4C)c3F)cc2)ccn1` (stereo not drawn) [Compound A-70], the IC50 amounted to 147 nM.

For the compound `Cc1cc(-c2ccc(CNc3cccc(-c4ccc5ccccc5c4)c3)cc2)ccn1` [Compound A-149], the concentration for half-maximal inhibition (IC50) is 603 nM.

With `Cc1cc(-c2ccc(CNc3ncnc(N4CCc5ncsc5C4)c3F)cc2)ccn1` [Compound A-47], the IC50 was 0.94 nM.

Turning to `Cc1cc(-c2ncc(CNc3nccc(-c4cncc(C#N)c4)c3F)cc2C#N)ccn1` [Compound A-131], the IC50 was 1 nM.

As for `COc1cc(CNc2nccc(-c3cc4cccnc4cn3)c2F)cnc1-c1ccnc(C)c1` [Compound A-122], the IC50 is 0.13 nM.

As to `Cc1cc(-c2ccc(CNc3cc(N4CCc5ccccc5C4=O)ncn3)cc2)ccn1` [Compound A-145], the IC50 turned out to be 1130 nM.

In the case of `Cc1cc(-c2ncc(CNc3ncnc(N4CCn5nnnc5C4)c3F)cc2C#N)ccn1` [Compound A-91], the IC50 was 53 nM.

As to `Cc1cc(-c2ncc(CNc3ncnc(N4CCOc5ncccc5C4)c3F)cc2F)ccn1` [Compound A-89], the IC50 amounted to 14 nM.

`Cc1cc(-c2ccc(CNc3ncnc(-c4ccc5cnccc5c4)c3F)cc2)ccn1` [Compound A-6]: the IC50 was 4.7 nM.

For the compound `Cc1cc(-c2ncc(CNc3nsc(-c4cc5cccnc5cn4)n3)cc2C#N)ccn1` [Compound A-197], the concentration for half-maximal inhibition (IC50) came to 0.31 nM.

Regarding `Cc1cc(-c2ccc(CN(C)c3ncnc(-c4ccc5ccccc5c4)c3F)cc2)ccn1` [Compound A-27, 5-fluoro-N-methyl-N-(4-(2-methylpyridin-4-yl)benzyl)-6-(naphthalen-2-yl)pyrimidin-4-amine], the IC50 turned out to be 937 nM.

Turning to `Cc1cc(-c2ncc(CNc3nccc(-c4cncc(F)c4)c3F)cc2F)ccn1` [Compound A-115], the IC50 is 7 nM.

As to `Cc1cc(-c2ccc(CNc3ccnc(-c4ccc5ncccc5c4)n3)cc2)ccn1` [Compound A-157], the IC50 worked out at 3000 nM.

On to `Cc1cc(-c2ncc(CNc3nccc(-c4ccc5ncccc5c4)n3)cc2C)ccn1` [Compound A-170], for which the IC50 was 3.7 nM.

For the compound `Cc1cc(-c2ccc(CNc3ncnc(-c4ccc5cccnc5c4)c3F)cc2)ccn1` [Compound A-3], the IC50 amounted to 36 nM.

For the compound `Cc1cc(-c2ccc(CNc3ncnc(-c4ccc5ccccc5c4)c3C#N)cc2)ccn1` [Compound A-144], the half-maximal inhibitory concentration (IC50) was 40 nM.

In the case of `Cc1cc(-c2ccc(CNc3ccnc(-c4ccc5ccccc5c4)c3)cc2)ccn1` [Compound A-164], the IC50 is 3000 nM.
